Assay results: patent US6479482B2, “Alkylamine derivatives of dihydropyridine NPY antagonists” (Bristol-Myers Squibb Company, priority 2000, dated 2002)

Assays:
[1] = molecular target: T1, I-125 Bolton-Hunter labeled NPY in human neuroblastoma cells (SK-N-MC) (Homo sapiens, UniProt P25929); details: cited from earlier work
T1 construct: displaces I-125 Bolton-Hunter labeled NPY in human neuroblastoma cells (SK-N-MC); endogenous in cells; host or cells: SK-N-MC human neuroblastoma cells
T1 sequence (P25929 1-384): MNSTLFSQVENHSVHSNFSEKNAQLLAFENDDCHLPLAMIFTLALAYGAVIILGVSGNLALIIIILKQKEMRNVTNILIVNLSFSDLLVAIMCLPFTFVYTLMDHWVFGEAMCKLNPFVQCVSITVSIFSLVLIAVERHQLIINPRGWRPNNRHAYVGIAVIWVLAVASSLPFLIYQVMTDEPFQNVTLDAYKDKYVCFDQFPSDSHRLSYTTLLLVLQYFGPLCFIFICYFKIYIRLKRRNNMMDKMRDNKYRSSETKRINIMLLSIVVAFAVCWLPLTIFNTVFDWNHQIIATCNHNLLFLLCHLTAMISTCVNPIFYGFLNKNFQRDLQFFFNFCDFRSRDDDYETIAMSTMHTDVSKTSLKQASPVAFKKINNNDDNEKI

[2] = tested on: NPY-induced pressor response; details: pithed rat; cited from earlier work
[3] = tested on: NPY-induced increase in intracellular Ca^++ in SK-N-MC cells; details: cited from earlier work
[4] = tested on: NPY-induced contractions in guinea pig basilar artery; details: cited from earlier work
[5] = tested on: NPY-induced Ca^++ entry in HEL cells; details: cited from earlier work
[6] = molecular target: T2, I-125 labeled NPY and PYY in human neuroblastoma cells (Homo sapiens, UniProt P25929); details: cited from earlier work
T2 construct: displacing I-125 labeled NPY and PYY in human neuroblastoma cells; endogenous in cells
T2 sequence (P25929 1-384): T1 sequence (P25929 1-384)

[7] = tested on: NPY-related increases in diastolic blood pressure; details: anesthetized guinea pig; cited from earlier work

Compound	melting point [°C]	also measured
COC(=O)C1=C(C)NC(C)=C(C(=O)OC)C1c1cccc(NC(=O)NCCCN2CCN(C(C)(C)C)CC2)c1.Cl.Cl	175 to 180	
COC(=O)C1=C(C)NC(C)=C(C(=O)OC)C1c1cccc(NC(=O)NCCCN2CCC(=O)CC2)c1.Cl	70 to 75	
CCCN1CCN(CCCNC(=O)Nc2cccc(C3C(C(=O)OC)=C(C)NC(C)=C3C(=O)OC)c2)CC1.Cl.Cl	190 to 200	
COC(=O)C1=C(C)NC(C)=C(C(=O)OC)C1c1cccc(NC(=O)NCCCN2CCN(CC(C)C)CC2)c1.Cl.Cl	165 to 170	
NC(N)=NCCC[C@@H](NC(=O)C(c1ccccc1)c1ccccc1)C(=O)NCc1ccc(O)cc1 [BIBP 3226]		displacement of I-125 Bolton-Hunter labeled NPY [1]: displaces; antagonism of NPY-induced pressor response [2]: antagonizing; antagonism of NPY-induced increase in intracellular Ca++ [3]: antagonized
O=P(O)(O)OC1[C@H](OP(=O)(O)O)[C@H](O)C(O)[C@H](O)[C@H]1OP(=O)(O)O (stereo partly drawn) [D-Myo-inositol-1,2,6-triphosphate]		antagonism of NPY-induced contractions [4]: potent but non-competitive antagonist
N=C(NCCCc1cnc[nH]1)NCCC(c1cc(F)cc(F)c1)c1ccccn1 (stereo not shown) [He 90481]		pA2, antagonism of NPY-induced Ca++ entry [5]: 4.43
CN(C)CC1CCC(CN=C(N)c2ccc(C[C@@H](NC(=O)[C@@H](Cc3ccccc3)NS(=O)(=O)c3ccc4ccccc4c3)C(=O)N3CCCC3)cc2)CC1 (stereo partly shown) [SR 120819A]		displacement of I-125 labeled NPY and PYY [6]: displacing; antagonism of NPY-related increases in diastolic blood pressure [7]: antagonized

The next lines start with results.

melting point [°C]	Compound	also measured
145 to 150	COC(=O)C1=C(C)NC(C)=C(C(=O)OC)C1c1cccc(NC(=O)NCCCN2CCN(CC3CC3)CC2)c1.Cl.Cl	
195 to 200	COC(=O)C1=C(C)NC(C)=C(C(=O)OC)C1c1cccc(NC(=O)NCCCN2CCN(C3CCCC3)CC2)c1.Cl.Cl	
120 to 130	COC(=O)C1=C(C)NC(C)=C(C(=O)OC)C1c1cccc(NC(=O)NCCCN2CCNCC2)c1.Cl.Cl	
120 to 125	CCN1CCN(CCCNC(=O)Nc2cccc(C3C(C(=O)OC)=C(C)NC(C)=C3C(=O)OC)c2)CC1.Cl.Cl	
170 to 180	COC(=O)C1=C(C)NC(C)=C(C(=O)OC)C1c1cccc(NC(=O)NCCCN2CCN(C(C)C)CC2)c1.Cl.Cl	
145 to 150	CCCCN1CCN(CCCNC(=O)Nc2cccc(C3C(C(=O)OC)=C(C)NC(C)=C3C(=O)OC)c2)CC1.Cl.Cl	
125 to 130	COC(=O)C1=C(C)NC(C)=C(C(=O)OC)C1c1cccc(NC(=O)NCCCN2CCN(C(=O)OC(C)(C)C)CC2)c1 [Example 13, 4-[3-[[[[3-[4-[(1,1-Dimethylethoxy)carbonyl]-1-piperazinyl]propyl]amino]-carbonyl]amino]phenyl]-1,4-dihydro-2,6-dimethyl-3,5-pyridinedicarboxylic acid, dimethyl ester]	
100 to 105	COC(=O)C1=C(C)NC(C)=C(C(=O)OC)C1c1cccc(NC(=O)NCCCN2CCC3(CC2)OCCO3)c1 [Example 14, 4-[3-[[[[3-(1,4-Dioxa-8-azaspiro[4.5]decan-8-yl)propyl]amino]carbonyl]-amino]phenyl]-1,4-dihydro-2,6-dimethyl-3,5-pyridinedicarboxylic acid, dimethyl ester]	
188 to 190	COC(=O)C1=C(C)NC(C)=C(C(=O)OC)C1c1ccc(F)c(NC(=O)NCCCN2CCC(C)CC2)c1 [Example 17, 4-[4-Fluoro-3-[[[[3-(4-methyl-1-piperidinyl)propyl]amino]carbonyl]-amino]phenyl]-1,4-dihydro-2,6-dimethyl-3,5-pyridinedicarboxylic acid, dimethyl ester]	
176 to 179	COC(=O)C1=C(C)NC(C)=C(C(=O)OC)C1c1ccc(F)c(NC(=O)NCCCN2CCC(C(C)C)CC2)c1 [Example 20, 4-[4-Fluoro-3-[[[[3-[4-(1-methylethyl)-1-piperidinyl]propyl]amino]-carbonyl]amino]phenyl]-1,4-dihydro-2,6-dimethyl-3,5-pyridinedicarboxylic acid, dimethyl ester]	
191 to 193	COC(=O)C1=C(C)NC(C)=C(C(=O)OC)C1c1ccc(F)c(NC(=O)NCCCN2CCC(C(C)(C)C)CC2)c1 [Example 21, 4-[4-Fluoro-3-[[[[3-[4-(1,1-dimethylethyl)-1-piperidinyl]propyl]amino]-carbonyl]amino]phenyl]-1,4-dihydro-2,6-dimethyl-3,5-pyridinedicarboxylic acid, dimethyl ester]	
